Data taken from PubChem BioAssay AID192 (DTP/NCI, 2004).
“And” between values parts separate entries of the source, which are not always exact repeats. Equal entries are not always repeated. Toxic doses and inconclusive results are not listed. Numbered stars: 1 amine (or outer) side, 2 acyl side, 3 side chain; on linkers, the order of the positions; unused ones are H or OH. Bridge positions count the residues as written; N and C are the ends. Square brackets hold non-standard residues; d marks the D form. Peptide text beside a SMILES is read from it. I, II: the chains in the order shown. Actinocin(9to1) = Cc1c2oc3c(C)ccc(C(=O)[*:1])c3nc-2c(C(=O)[*:2])c(N)c1=O; NMeV = CN[CH](C(=O)O)C(C)C; Aze = O=C(O)[CH]1CCN1; Sar = CNCC(=O)O

Test system: BDF1 mice, B16 melanoma ip, median survival T/C
Assay: NCI In Vivo Anticancer Drug Screen. Data for tumor model B16 Melanoma (intraperitoneal) in B6D2F1 (BDF1) mice
Conditions: endpoint: median survival time, higher = longer survival
Summary of the method: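 In this screen, activity was judged from survival or tumor size in treated versus vehicle-treated tumor-bearing mice, reported as T/C.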

[1] = dose: 100.0 mg/kg/injection, schedule: Q01DX009 (ip), vehicle: Klucel (hydroxypropylcellulose) (HPC)
[2] = dose: 200.0 mg/kg/injection, schedule: Q01DX009 (ip), vehicle: Klucel (hydroxypropylcellulose) (HPC)
[3] = dose: 200.0 mg/kg/injection, schedule: Q04DX003 (ip), vehicle: Klucel (hydroxypropylcellulose) (HPC)
[4] = dose: 400.0 mg/kg/injection, schedule: Q01DX009 (ip), vehicle: Klucel (hydroxypropylcellulose) (HPC)
[5] = dose: 6.25 mg/kg/injection, schedule: Q01DX009 (ip), vehicle: saline with Tween-80
[6] = dose: 12.5 mg/kg/injection, schedule: Q01DX009 (ip), vehicle: saline with Tween-80
[7] = dose: 25.0 mg/kg/injection, schedule: Q01DX009 (ip), vehicle: saline with Tween-80
[8] = dose: 50.0 mg/kg/injection, schedule: Q01DX009 (ip), vehicle: saline with Tween-80
[9] = dose: 100.0 mg/kg/injection, schedule: Q01DX009 (ip), vehicle: saline with Tween-80
[10] = dose: 200.0 mg/kg/injection, schedule: Q01DX009 (ip), vehicle: saline with Tween-80
[11] = dose: 2.5 mg/kg/injection, schedule: Q01DX009 (ip), vehicle: Klucel (hydroxypropylcellulose) (HPC)
[12] = dose: 50.0 mg/kg/injection, schedule: Q01DX009 (ip), vehicle: Klucel (hydroxypropylcellulose) (HPC)

How did the T/C (dose: 12.5 mg/kg/injection, schedule: Q04DX003 (ip), vehicle: Klucel (hydroxypropylcellulose) (HPC)) turn out when `CC(Cl)CN(CC(C)Cl)C(=O)OCC(NC(=O)OCc1ccccc1)C(=O)OCc1ccccc1` (centres undefined) was run?
The T/C was 86 % of control.

And the T/C (dose: 25.0 mg/kg/injection, schedule: Q04DX003 (ip), vehicle: Klucel (hydroxypropylcellulose) (HPC))?
Its T/C is 86 % of control.

And the T/C (dose: 50.0 mg/kg/injection, schedule: Q04DX003 (ip), vehicle: Klucel (hydroxypropylcellulose) (HPC))?
Its T/C is 86 % of control.

And the T/C [1]?
The T/C was 97 % of control.

What about the T/C [2] of the same compound?
The T/C was 97 % of control.

And the T/C [3]?
Its T/C is 93 % of control.

And the T/C [4]?
Its T/C is 88 % of control.

What does the source list for `COC(=O)C(CCCCN=Cc1ccccc1O)N=Cc1ccccc1O.[Ni]` (centres undefined)?
T/C [5]: 100 % of control; T/C [6]: 90 % of control; T/C (dose: 12.5 mg/kg/injection, schedule: Q04DX003 (ip), vehicle: saline with Tween-80): 95 % of control; T/C [7]: 95 % of control; T/C (dose: 25.0 mg/kg/injection, schedule: Q04DX003 (ip), vehicle: saline with Tween-80): 93 % of control

`CN(C)C(=S)Nc1ccccc1` was tested. Which T/C [8] did it give?
The T/C was 95 % of control.

What about the T/C [9] of the same compound?
Its T/C is 95 % of control.

And the T/C [10]?
Its T/C is 90 % of control.

`COc1cc2c(c(OC)c1O)-c1ccc(OC)c(=O)cc1[C@@H](NC(=O)C(F)(F)F)CC2` was tested. Which T/C (dose: 0.62 mg/kg/injection, schedule: Q01DX009 (ip), vehicle: Klucel (hydroxypropylcellulose) (HPC)) did it give?
The T/C was 121 % of control.

And the T/C (dose: 1.25 mg/kg/injection, schedule: Q01DX009 (ip), vehicle: Klucel (hydroxypropylcellulose) (HPC))?
Its T/C is 117 % of control and 124 % of control.

And the T/C [11]?
Its T/C is 116 % of control.

What about the T/C (dose: 5.0 mg/kg/injection, schedule: Q01DX009 (ip), vehicle: Klucel (hydroxypropylcellulose) (HPC)) of the same compound?
Its T/C is 118 % of control.

`COc1ccccc1N1CCCSC1=Nc1ccccc1` was tested. Which T/C (dose: 12.5 mg/kg/injection, schedule: Q01DX009 (ip), vehicle: Klucel (hydroxypropylcellulose) (HPC)) did it give?
The T/C was 98 % of control.

And the T/C (dose: 25.0 mg/kg/injection, schedule: Q01DX009 (ip), vehicle: Klucel (hydroxypropylcellulose) (HPC))?
Its T/C is 95 % of control.

What about the T/C [12] of the same compound?
Its T/C is 95 % of control.

And the T/C [1]?
Its T/C is 100 % of control.

And the T/C [2]?
Its T/C is 100 % of control.

With `Cc1ccc(Nc2ccc([N+](=O)[O-])cc2[N+](=O)[O-])c(C)c1` as the compound, how does the T/C [1] read?
The T/C was 93 % of control.

And the T/C [2]?
The T/C was 98 % of control.

What about the T/C [4] of the same compound?
Its T/C is 97 % of control.

For `CC[C@@H]1C[C@@H]2CN3CCc4c([nH]c5ccc(OC)cc45)C(C(=O)OC)(C2)C13`, which T/C [12] is on record?
Its T/C is 102 % of control.

What about the T/C [1] of the same compound?
Its T/C is 106 % of control.

What about the T/C [2] of the same compound?
Its T/C is 111 % of control.

`C[C@]12CC[C@H]3[C@@H](CCC4=CC(=O)CC[C@@]43C)[C@@H]1CC[C@@H]2OC(=O)Cc1ccc(N(CCCl)CCCl)cc1` was tested. Which T/C (dose: 64.0 mg/kg/injection, schedule: Q02DX009 (ip), vehicle: Klucel (hydroxypropylcellulose) (HPC)) did it give?
Its T/C is 100 % of control and 111 % of control.

And the T/C (dose: 128.0 mg/kg/injection, schedule: Q02DX009 (ip), vehicle: Klucel (hydroxypropylcellulose) (HPC))?
The T/C was 95 % of control and 115 % of control.

And the T/C (dose: 256.0 mg/kg/injection, schedule: Q02DX009 (ip), vehicle: Klucel (hydroxypropylcellulose) (HPC))?
The T/C was 122 % of control.

For `O=CNC(Cc1ccccc1)C(=O)O` (centres undefined), which T/C [8] is on record?
Its T/C is 106 % of control.

What about the T/C [9] of the same compound?
The T/C was 92 % of control.

What about the T/C [10] of the same compound?
Its T/C is 89 % of control.

What does the source list for `CC1CCC2(C)CCC3(C)C(=CCC4C5(C)CCC(O)C(C)(C)C5CCC43C)C2C1C` (centres undefined)?
T/C [12]: 99 % of control; T/C [1]: 97 % of control; T/C [2]: 90 % of control

Which T/C (dose: 64.0 mg/kg/injection, schedule: Q01DX009 (ip), vehicle: Klucel (hydroxypropylcellulose) (HPC)) does the source give for `Cc1cc2oc(=O)c3c(c2c(O)c1CN1CCOCC1)CCCC3` here?
The T/C was 103 % of control.

And the T/C (dose: 128.0 mg/kg/injection, schedule: Q01DX009 (ip), vehicle: Klucel (hydroxypropylcellulose) (HPC))?
The T/C was 98 % of control.

And the T/C (dose: 256.0 mg/kg/injection, schedule: Q01DX009 (ip), vehicle: Klucel (hydroxypropylcellulose) (HPC))?
Its T/C is 108 % of control.

Which results are given for `NC(N)=Nc1ccc(C(=O)Oc2ccc([N+](=O)[O-])cc2CN2CCCCC2)cc1`?
T/C (dose: 3.13 mg/kg/injection, schedule: Q01DX009 (ip), vehicle: saline): 100 % of control; T/C (dose: 6.25 mg/kg/injection, schedule: Q01DX009 (ip), vehicle: saline): 100 % of control

`COC(=O)c1[nH]c(=O)[nH]c(=O)c1F` was tested. Which T/C (dose: 2.0 mg/kg/injection, schedule: Q01DX009 (ip), vehicle: saline with Tween-80) did it give?
The T/C was 95 % of control.

And the T/C (dose: 4.0 mg/kg/injection, schedule: Q01DX009 (ip), vehicle: saline with Tween-80)?
The T/C was 97 % of control.

And the T/C (dose: 8.0 mg/kg/injection, schedule: Q01DX009 (ip), vehicle: saline with Tween-80)?
Its T/C is 107 % of control.

Which results are given for `O=C(O)c1ccc(SSc2ccc(C(=O)O)cn2)nc1`?
T/C [1]: 88 % of control; T/C (dose: 100.0 mg/kg/injection, schedule: Q04DX003 (ip), vehicle: Klucel (hydroxypropylcellulose) (HPC)): 93 % of control; T/C [2]: 100 % of control; T/C [3]: 97 % of control; T/C [4]: 88 % of control; T/C (dose: 400.0 mg/kg/injection, schedule: Q04DX003 (ip), vehicle: Klucel (hydroxypropylcellulose) (HPC)): 90 % of control

What does the source list for `Nc1nnc[se]1`?
T/C (dose: 3.13 mg/kg/injection, schedule: Q01DX009 (ip), vehicle: saline with Tween-80): 106 % of control; T/C [5]: 97 % of control; T/C [6]: 102 % of control; T/C [7]: 115 % of control

`C=C1C(C)C2C(Cc3ccccc3)NC(=O)C23OC(=O)/C=C\CC(=O)CCC(C)C/C=C/C3C1O` (centres undefined) was tested. Which T/C [11] did it give?
The T/C was 94 % of control.

How did the T/C (dose: 188.0 micrograms/kg/injection, schedule: Q01DX009 (ip), vehicle: water) turn out when `COC1C(O)CC(OC2CC(OC3CC(O[C@@H]4C(=O)c5c(cc6cc(OC7CC(OC8CC(O)C(O)C(C)O8)C(O)C(C)O7)c(C)c(O)c6c5O)C[C@H]4[C@H](OC)C(=O)[C@@H](O)[C@@H](C)O)OC(C)C3O)OC(C)C2O)OC1C` (some centres undefined) was run?
Its T/C is 106 % of control.

What about the T/C (dose: 375.0 micrograms/kg/injection, schedule: Q01DX009 (ip), vehicle: water) of the same compound?
Its T/C is 105 % of control.

What about the T/C (dose: 750.0 micrograms/kg/injection, schedule: Q01DX009 (ip), vehicle: water) of the same compound?
The T/C was 121 % of control.

`Cc1ccc(C)c(NC(=O)c2ccccc2C(=O)O)c1` was tested. Which T/C [1] did it give?
Its T/C is 94 % of control.

What about the T/C [2] of the same compound?
The T/C was 91 % of control.

With `Cc1c2oc3c(C)ccc(C(=O)NC4C(=O)NC(C(C)C)C(=O)N5CCC5C(=O)N(C)CC(=O)N(C)C(C(C)C)C(=O)OC4C)c3nc-2c(C(=O)NC2C(=O)NC(C(C)C)C(=O)N3CCC3C(=O)N(C)CC(=O)N(C)C(C(C)C)C(=O)OC2C)c(N)c1=O` (centres undefined) (I: TV[Aze][Sar][NMeV] / II: TV[Aze][Sar][NMeV]; ester I:1-I:C, II:1-II:C; linker I:N-II:N via Actinocin(9to1); configuration not given here) as the compound, how does the T/C (dose: 0.3 mg/kg/injection, schedule: Q04DX003 (ip), vehicle: saline + alcohol) read?
Its T/C is 169 % of control.

What about the T/C (dose: 0.45 mg/kg/injection, schedule: Q04DX003 (ip), vehicle: saline + alcohol) of the same compound?
The T/C was 163 % of control.

And the T/C (dose: 100.0 micrograms/kg/injection, schedule: Q01DX009 (ip), vehicle: saline + alcohol)?
The T/C was 159 % of control.

What about the T/C (dose: 150.0 micrograms/kg/injection, schedule: Q01DX009 (ip), vehicle: saline + alcohol) of the same compound?
Its T/C is 161 % of control.

With `CCN1C(=O)CN(CCN2CC(=O)N(c3ccccc3)C2=S)C1=S` as the compound, how does the T/C (dose: 18.75 mg/kg/injection, schedule: Q01DX009 (ip), vehicle: saline with Tween-80) read?
Its T/C is 112 % of control.

What about the T/C (dose: 37.5 mg/kg/injection, schedule: Q01DX009 (ip), vehicle: saline with Tween-80) of the same compound?
The T/C was 120 % of control.
